Assay results from patent publication US20120108492A1, “LIGAND-SPECIFIC NON-ANTIBODY COMPOUNDS THAT INHIBIT CR2 ACTIVATION AND METHODS OF USE THEREOF” (The Regents of the University of Colorado, priority 2008, published 2012).
Where a SMILES comes first, the peptide text is derived from it. Bridges are numbered along the chain shown (N, C = ends). Where no end group is shown, it is not given here.

What was measured:
CR2-C3d interaction = biological target: T1, CR2-C3d interaction (Homo sapiens, UniProt P20023); assay: Peptide competition ELISA, CR2-C3d (bound C3d, solution phase MBP-CR2); type: binding
T1 construct: DNA corresponding to residues 1-133 of wild-type CR2 (SCR1-2) was PCR amplified; made in house; host or cells: E. coli (pMAL-P2X)
T1 sequence (P20023 21-153): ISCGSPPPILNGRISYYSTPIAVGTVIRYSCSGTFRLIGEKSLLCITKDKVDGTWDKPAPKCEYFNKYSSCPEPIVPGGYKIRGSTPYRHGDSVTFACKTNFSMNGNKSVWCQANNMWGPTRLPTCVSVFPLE

[1] = biological target: T2, CR2-EBV gp350 interaction (Homo sapiens, UniProt P20023); conditions: peptides raised against CR2-C3d
[2] = biological target: T2, CR2-EBV gp350 interaction; assay: biochemical

Compound | IC50 (CR2-C3d interaction) [µM] | also measured
APQHLSSQ [C3dp1.3] | 40 | 
ISTSNPRH [C3dp2.2] | 190 | 
APQALSSQYSRT [C3dp1.1] | 70 | 
ISTSNPRHHSTA [C3dp2] | 450 | 
TRSYQSSLHQPA [C3dp1.2] | 70 | 
DPKNHVH [C3dcp1.1, DPKNHVH] | 95 | 
APAHLSSQ [control] | 700 | 
ISTSNPRAASTA [C3dp2.1] | 150 | 
APQHLSSQYSRT [C3dp1] | 100 | effect on the CR2-EBV gp350 interaction (ligand specificity) [1]: largely unaffected
CC(C)C[C@@H]1NC(=O)[C@H](CO)NC(=O)CNC(=O)[C@H](CCC(=O)O)NC(=O)[C@H](CO)NC(=O)[C@@H](N)CSSC[C@@H](C(=O)O)NC(=O)CNC(=O)[C@H](CCCCN)NC1=O [gp350cp1] (H-CSEGSLKGC-OH; disulfide 1-9; N-terminus and C-terminus assumed) |  | effect on the CR2-C3d interaction (ligand specificity) (CR2-C3d interaction; peptide raised against CR2-EBV gp350): unaffected; IC50 [2]: 150 µM
IATANPRHHSTA [C3dp2.3] | 160 | 
